Assay results as given in patent US20260193264A1, “BENZOYPARAZINE PYRAZINES AND THEIR USES” (FOGHORN THERAPEUTICS INC., priority 2022, published 2026).

Tests used:
[1] = molecular target: T1, HiBiT-BRM fusion protein in stable HeLa cell line (Homo sapiens, UniProt P51531); test: HiBiT-BRM cell-based degradation assay (Nano-Glo HiBiT Lytic Detection, 24 h); parameters: DC50: scale not given here; details: HeLa HiBiT-BRM cells; for DC50: read-out: BRM HiBit Degradation IC50; for BRM HiBit Degradation Maximum (%): top dose 30 μM
T1 construct: expressed in transfected cells
Outline: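 HeLa stably expressing HiBiT-BRM; 24 h compound exposure, 10-pt 3-fold dilution from 30 μM final, duplicates. Lytic LgBiT complementation, luminescence. % degradation vs DMSO (HC) and 2 μM known BRM/BRG1 degrader (LC).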

[2] = molecular target: T2, HiBit-BRG1 fusion protein in stable HeLa cell line expressing HiBit-BRG1 and LgBit (Homo sapiens, UniProt P51532); test: HiBiT-BRG1 cell-based degradation assay (Nano-Glo HiBiT, 24 h); details: HeLa HiBit-BRG1/LgBit cells; for DC50: read-out: BRMG1 HiBit Degradation IC50; for Dmax: top dose 30 μM, read-out: BRG1 HiBit Degradation Maximum (%)
T2 construct: expressed in transfected cells
Outline: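 Degradation calculated from NanoBiT luminescence relative to DMSO-treated cells (high) and cells given 2 μM known BRM/BRG1 degrader (low). HeLa cells stably expressing HiBiT-BRG1 plus LgBiT were exposed to compound for 24 h before lytic HiBiT detection.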

T1 sequence (P51531 whole entry, the tested form may be a part): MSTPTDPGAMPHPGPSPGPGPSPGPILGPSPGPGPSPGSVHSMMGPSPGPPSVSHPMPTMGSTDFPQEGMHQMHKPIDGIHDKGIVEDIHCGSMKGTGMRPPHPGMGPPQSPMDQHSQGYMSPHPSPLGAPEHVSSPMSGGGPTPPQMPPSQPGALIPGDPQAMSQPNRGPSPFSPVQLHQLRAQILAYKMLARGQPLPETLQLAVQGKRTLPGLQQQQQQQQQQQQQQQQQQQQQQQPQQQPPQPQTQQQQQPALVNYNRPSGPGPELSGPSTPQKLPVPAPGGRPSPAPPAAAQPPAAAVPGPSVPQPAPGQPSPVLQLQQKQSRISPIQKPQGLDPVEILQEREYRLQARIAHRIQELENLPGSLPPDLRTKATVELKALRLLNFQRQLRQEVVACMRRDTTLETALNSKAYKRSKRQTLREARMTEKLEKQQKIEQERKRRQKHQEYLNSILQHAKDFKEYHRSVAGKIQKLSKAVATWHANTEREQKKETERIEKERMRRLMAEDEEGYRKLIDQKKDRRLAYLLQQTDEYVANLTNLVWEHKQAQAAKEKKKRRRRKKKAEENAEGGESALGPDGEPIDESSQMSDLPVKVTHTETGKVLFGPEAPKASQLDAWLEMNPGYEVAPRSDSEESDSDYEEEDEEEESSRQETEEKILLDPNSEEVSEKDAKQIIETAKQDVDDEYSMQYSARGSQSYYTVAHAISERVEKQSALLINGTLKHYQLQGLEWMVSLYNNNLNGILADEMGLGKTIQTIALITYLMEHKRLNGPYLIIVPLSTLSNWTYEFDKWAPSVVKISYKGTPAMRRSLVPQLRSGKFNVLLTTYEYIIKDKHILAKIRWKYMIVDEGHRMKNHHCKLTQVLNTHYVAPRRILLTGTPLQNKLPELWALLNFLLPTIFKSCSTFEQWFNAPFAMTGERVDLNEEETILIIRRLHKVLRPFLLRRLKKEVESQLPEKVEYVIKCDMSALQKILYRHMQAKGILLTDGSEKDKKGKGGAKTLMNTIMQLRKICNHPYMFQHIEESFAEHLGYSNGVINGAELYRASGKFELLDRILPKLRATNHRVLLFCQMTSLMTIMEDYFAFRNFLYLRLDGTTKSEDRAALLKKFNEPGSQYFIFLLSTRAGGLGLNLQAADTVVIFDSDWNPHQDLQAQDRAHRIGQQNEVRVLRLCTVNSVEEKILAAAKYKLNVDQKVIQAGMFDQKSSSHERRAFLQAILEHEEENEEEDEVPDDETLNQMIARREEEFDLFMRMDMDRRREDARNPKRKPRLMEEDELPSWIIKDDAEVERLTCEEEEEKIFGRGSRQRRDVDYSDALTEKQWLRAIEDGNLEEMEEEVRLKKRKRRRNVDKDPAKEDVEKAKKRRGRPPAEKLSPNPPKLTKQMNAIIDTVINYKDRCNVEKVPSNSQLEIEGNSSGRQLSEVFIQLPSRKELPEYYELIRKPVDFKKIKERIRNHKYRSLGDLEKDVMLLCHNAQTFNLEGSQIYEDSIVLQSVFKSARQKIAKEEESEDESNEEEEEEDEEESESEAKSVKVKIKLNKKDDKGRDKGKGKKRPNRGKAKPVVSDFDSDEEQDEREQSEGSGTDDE
T2 sequence (P51532 whole entry, the tested form may be a part): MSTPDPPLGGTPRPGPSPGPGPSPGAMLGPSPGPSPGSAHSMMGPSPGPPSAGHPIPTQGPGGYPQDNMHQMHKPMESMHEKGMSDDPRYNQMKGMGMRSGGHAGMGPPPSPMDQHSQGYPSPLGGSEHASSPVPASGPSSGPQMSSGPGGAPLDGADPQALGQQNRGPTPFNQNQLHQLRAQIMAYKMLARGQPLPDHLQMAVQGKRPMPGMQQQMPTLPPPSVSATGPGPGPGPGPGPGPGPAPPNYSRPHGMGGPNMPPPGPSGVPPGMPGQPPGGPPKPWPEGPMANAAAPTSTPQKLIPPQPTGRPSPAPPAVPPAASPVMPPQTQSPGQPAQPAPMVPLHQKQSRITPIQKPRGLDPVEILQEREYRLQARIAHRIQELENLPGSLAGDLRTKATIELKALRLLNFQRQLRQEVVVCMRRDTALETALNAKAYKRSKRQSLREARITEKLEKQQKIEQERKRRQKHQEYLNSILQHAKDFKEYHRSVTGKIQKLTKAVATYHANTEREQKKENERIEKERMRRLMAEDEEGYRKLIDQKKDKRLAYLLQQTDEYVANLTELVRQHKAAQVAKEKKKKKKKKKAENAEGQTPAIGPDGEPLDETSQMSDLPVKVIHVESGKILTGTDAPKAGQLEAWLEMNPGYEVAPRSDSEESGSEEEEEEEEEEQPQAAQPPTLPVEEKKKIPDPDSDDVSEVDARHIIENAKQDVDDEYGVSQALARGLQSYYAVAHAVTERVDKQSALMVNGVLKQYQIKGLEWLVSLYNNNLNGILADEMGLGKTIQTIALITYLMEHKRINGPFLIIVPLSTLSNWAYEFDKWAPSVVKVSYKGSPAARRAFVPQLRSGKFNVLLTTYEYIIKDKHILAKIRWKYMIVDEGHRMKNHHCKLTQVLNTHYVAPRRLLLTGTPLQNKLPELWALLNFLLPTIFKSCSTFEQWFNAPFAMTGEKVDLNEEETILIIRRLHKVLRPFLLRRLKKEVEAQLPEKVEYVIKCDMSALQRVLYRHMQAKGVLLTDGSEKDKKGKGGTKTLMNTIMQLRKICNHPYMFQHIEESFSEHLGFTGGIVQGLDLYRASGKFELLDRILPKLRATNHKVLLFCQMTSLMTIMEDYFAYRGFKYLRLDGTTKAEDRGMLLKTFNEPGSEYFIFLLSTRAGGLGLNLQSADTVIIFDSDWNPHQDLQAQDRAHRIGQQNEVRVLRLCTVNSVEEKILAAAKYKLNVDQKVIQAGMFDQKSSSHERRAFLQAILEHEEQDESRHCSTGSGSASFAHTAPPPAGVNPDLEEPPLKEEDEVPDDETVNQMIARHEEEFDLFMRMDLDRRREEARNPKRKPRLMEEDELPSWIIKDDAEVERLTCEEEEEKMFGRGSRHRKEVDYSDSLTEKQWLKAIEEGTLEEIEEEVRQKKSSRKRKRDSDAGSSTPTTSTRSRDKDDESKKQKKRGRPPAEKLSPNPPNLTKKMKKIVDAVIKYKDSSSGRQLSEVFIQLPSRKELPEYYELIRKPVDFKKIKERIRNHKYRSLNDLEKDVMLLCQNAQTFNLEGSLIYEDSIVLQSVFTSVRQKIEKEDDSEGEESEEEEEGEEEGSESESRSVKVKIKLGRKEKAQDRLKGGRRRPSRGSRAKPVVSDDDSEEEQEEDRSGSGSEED

SMILES	DC50 [1] [nM]	DC50 [2] [nM]	Dmax [2] [%]	BRM HiBit Degradation Maximum (%) [1]
Cc1ncsc1-c1ccc([C@H](C)NC(=O)[C@@H]2C[C@@H](O)CN2C(=O)[C@@H](c2cc(N3CCC(c4ccc5nnc(-c6ccccc6O)cc5c4)CC3)no2)C(C)C)cc1 [Compound 61, (2S,4R)-4-hydroxy-1-((R)-2-(3-(4-(3-(2-hydroxyphenyl)cinnolin-6-yl)piperidin-1-yl)isoxazol-5-yl)-3-methylbutanoyl)-N-((S)-1-(4-(4-methylthiazol-5-yl)phenyl)ethyl)pyrrolidine-2-carboxamide]	> 10		< 50	A (“A” indicates maximum degradation ≥75%)
Cc1ncsc1-c1ccc([C@H](C)NC(=O)[C@@H]2C[C@@H](O)CN2C(=O)[C@@H](c2cc(N3CCC4(CC3)CN(c3ccc5nnc(-c6ccccc6O)cc5c3)C4)no2)C(C)C)cc1 [Compound 67, (2S,4R)-4-hydroxy-1-((R)-2-(3-(2-(3-(2-hydroxyphenyl)cinnolin-6-yl)-2,7-diazaspiro[3.5]nonan-7-yl)isoxazol-5-yl)-3-methylbutanoyl)-N-((S)-1-(4-(4-methylthiazol-5-yl)phenyl)ethyl)pyrrolidine-2-carboxamide]	< 10	> 10	> 75	A (“A” indicates maximum degradation ≥75%)
Cc1ncsc1-c1ccc([C@H](C)NC(=O)[C@@H]2C[C@@H](O)CN2C(=O)[C@@H](c2cc(-c3cnc(N4CC(c5cc6nnc(-c7ccccc7O)cc6cc5C5CC5)C4)nc3)no2)C(C)C)cc1 [Compound 68, (2S,4R)-1-((R)-2-(3-(2-(3-(6-cyclopropyl-3-(2-hydroxyphenyl)cinnolin-7-yl)azetidin-1-yl)pyrimidin-5-yl)isoxazol-5-yl)-3-methylbutanoyl)-4-hydroxy-N-((S)-1-(4-(4-methylthiazol-5-yl)phenyl)ethyl)pyrrolidine-2-carboxamide]	< 10	> 10	> 75	A (“A” indicates maximum degradation ≥75%)
Cc1nc(N2CCC(c3ccc4nnc(-c5ccccc5O)cc4c3)CC2)ccc1-c1cc([C@H](C(=O)N2C[C@H](O)C[C@H]2C(=O)N[C@@H](C)c2ccc(-c3scnc3C)cc2)C(C)C)on1 [Compound 69, (2S,4R)-4-hydroxy-1-((R)-2-(3-(6-(4-(3-(2-hydroxyphenyl)cinnolin-6-yl)piperidin-1-yl)-2-methylpyridin-3-yl)isoxazol-5-yl)-3-methylbutanoyl)-N-((S)-1-(4-(4-methylthiazol-5-yl)phenyl)ethyl)pyrrolidine-2-carboxamide]	< 10	> 100	> 50	A (“A” indicates maximum degradation ≥75%)
Cc1cc(N2CCC(c3ccc4nnc(-c5ccccc5O)cc4c3)CC2)ncc1-c1cc([C@H](C(=O)N2C[C@H](O)C[C@H]2C(=O)N[C@@H](C)c2ccc(-c3scnc3C)cc2)C(C)C)on1 [Compound 70, (2S,4R)-4-hydroxy-1-((R)-2-(3-(6-(4-(3-(2-hydroxyphenyl)cinnolin-6-yl)piperidin-1-yl)-4-methylpyridin-3-yl)isoxazol-5-yl)-3-methylbutanoyl)-N-((S)-1-(4-(4-methylthiazol-5-yl)phenyl)ethyl)pyrrolidine-2-carboxamide]	> 10	> 10	> 50	A (“A” indicates maximum degradation ≥75%)
Cc1ncsc1-c1ccc([C@H](C)NC(=O)[C@@H]2C[C@@H](O)CN2C(=O)[C@@H](c2cc(N3CCC4(CC3)CC(c3ccc5nnc(-c6ccccc6O)cc5c3)C4)no2)C(C)C)cc1 [Compound 71, (2S,4R)-4-hydroxy-1-[(2R)-2-(3-{2-[3-(2-hydroxyphenyl)cinnolin-6-yl]-7-azaspiro[3.5]nonan-7-yl}-1,2-oxazol-5-yl)-3-methylbutanoyl]-N-[(1S)-1-[4-(4-methyl-1,3-thiazol-5-yl)phenyl]ethyl]pyrrolidine-2-carboxamide]	< 10	< 10	> 75	A (“A” indicates maximum degradation ≥75%)
Cc1ncsc1-c1ccc([C@H](C)NC(=O)[C@@H]2C[C@@H](O)CN2C(=O)[C@@H](c2cc(N3CCC4(CCN(c5ccc6nnc(-c7ccccc7O)cc6c5)C4)CC3)no2)C(C)C)cc1 [Compound 72, (2S,4R)-4-hydroxy-1-((R)-2-(3-(2-(3-(2-hydroxyphenyl)cinnolin-6-yl)-2,8-diazaspiro [4.5]decan-8-yl)isoxazol-5-yl)-3-methylbutanoyl)-N-((S)-1-(4-(4-methylthiazol-5-yl)phenyl)ethyl)pyrrolidine-2-carboxamide]	< 10	> 10	> 75	A (“A” indicates maximum degradation ≥75%)

The next lines start with results.

DC50 [1] [nM]	DC50 [2] [nM]	Dmax [2] [%]	SMILES	BRM HiBit Degradation Maximum (%) [1]
< 10	< 10	> 75	Cc1ncsc1-c1ccc([C@H](C)NC(=O)[C@@H]2C[C@@H](O)CN2C(=O)[C@@H](c2cc(N3CC[C@H](c4ccc5cc(-c6ccccc6O)nnc5c4)C3)no2)C(C)C)cc1 [Compound 60, (2S,4R)-4-hydroxy-1-((R)-2-(3-((R)-3-(3-(2-hydroxyphenyl)cinnolin-7-yl)pyrrolidin-1-yl)isoxazol-5-yl)-3-methylbutanoyl)-N-((S)-1-(4-(4-methylthiazol-5-yl)phenyl)ethyl)pyrrolidine-2-carboxamide]	A (“A” indicates maximum degradation ≥75%)
< 10	> 10	> 75	Cc1ncsc1-c1ccc([C@H](C)NC(=O)[C@@H]2C[C@@H](O)CN2C(=O)[C@@H](c2cc(N3CC4(CCC(c5ccc6nnc(-c7ccccc7O)cc6c5)CC4)C3)no2)C(C)C)cc1 [Compound 62, (2S,4R)-4-hydroxy-1-((R)-2-(3-(7-(3-(2-hydroxyphenyl)cinnolin-6-yl)-2-azaspiro[3.5]nonan-2-yl)isoxazol-5-yl)-3-methylbutanoyl)-N-((S)-1-(4-(4-methylthiazol-5-yl)phenyl)ethyl)pyrrolidine-2-carboxamide]	A (“A” indicates maximum degradation ≥75%)
< 10	> 10	> 50	Cc1cc(-c2cc([C@H](C(=O)N3C[C@H](O)C[C@H]3C(=O)N[C@@H](C)c3ccc(-c4scnc4C)cc3)C(C)C)on2)cnc1N1CCC(c2ccc3nnc(-c4ccccc4O)cc3c2)CC1 [Compound 64, (2S,4R)-4-hydroxy-1-((R)-2-(3-(6-(4-(3-(2-hydroxyphenyl)cinnolin-6-yl)piperidin-1-yl)-5-methylpyridin-3-yl)isoxazol-5-yl)-3-methylbutanoyl)-N-((S)-1-(4-(4-methylthiazol-5-yl)phenyl)ethyl)pyrrolidine-2-carboxamide]	A (“A” indicates maximum degradation ≥75%)
< 10		< 50	Cc1ncsc1-c1ccc([C@H](C)NC(=O)[C@@H]2C[C@@H](O)CN2C(=O)[C@@H](c2cc(N3CC4(CN(c5ccc6nnc(-c7ccccc7O)cc6c5)C4)C3)no2)C(C)C)cc1 [Compound 66, (2S,4R)-4-hydroxy-1-((R)-2-(3-(6-(3-(2-hydroxyphenyl)cinnolin-6-yl)-2,6-diazaspiro[3.3]heptan-2-yl)isoxazol-5-yl)-3-methylbutanoyl)-N-((S)-1-(4-(4-methylthiazol-5-yl)phenyl)ethyl)pyrrolidine-2-carboxamide]	A (“A” indicates maximum degradation ≥75%)
